“Also recorded” adds a separate entry of the source. Where two headings read alike, the source gives them in different places.
How the values were obtained:
[1] = target: T1, Link_TSG6 (Homo sapiens, UniProt P98066); assay: ITC of HA oligosaccharides binding to Link_TSG6; conditions: for N / ΔG / ΔH / −TΔS / Kd: ITC, 25 °C, 5 mM MES pH 6.0, mean ± SEM; for N: 0.029 mM Link_TSG6, 0.29 mM oligosaccharide; for N / Kd: four titrations; for Kd: read-out: KD; for % Binding affinity Link_TSG6: Table 6, relative to unmodified oligosaccharide of the same length, by ITC
T1 construct: made in house
Description: ITC experiments were performed using a MicroCal PEAQ-ITC instrument (Malvern Instruments). Oligosaccharide stock solutions were prepared at 0.29 mM (in 5 mM MES, pH 6.0) and injected (18 × 2 μl with 120 s spacing between injections) into the cell containing ∼200 μl Link_TSG6 (0.029 mM) in matched buffer at 25 °C. Data were fit to a one site binding model, after subtracting the heats from the last three injections to account for heat of dilution of the oligosaccharide into buffer. Each oligosaccharide was analyzed in four independently performed ITC experiments.

[2] = target: T2, hisCD44_HABD^20–169 (Homo sapiens, UniProt P16070); assay: MST of HA oligosaccharides binding to hisCD44_HABD^20–169; conditions: for Kd: 10 mM Hepes pH 7.5, 150 mM NaCl, 0.05% Tween-20, 25 °C, three titrations, read-out: KD; for % Binding affinity hisCD44_HABD^20–169: Table 6, relative to unmodified oligosaccharide of the same length, by MST
T2 construct: A novel construct consisting of residues 20 to 169 of human CD44 and an N-terminal six-histidine tag; made in house
Description: For hisCD44_HABD^20–169, interactions with HA oligosaccharides were assessed using MST. Protein (200 nM) was labeled with 5 μM red-Tris-NTA-650 dye following the manufacturer’s instructions in 10 mM Hepes, pH 7.4, 150 mM NaCl, 0.05% (v/v) Tween-20 (interaction buffer). Stock solutions of HA oligosaccharides (5 mM in interaction buffer) were serially diluted (1:1 in interaction buffer) 16 times before each concentration was mixed with an equal volume of labeled protein (10 nM final concentration hisCD44_HABD^20–169). Samples were loaded into standard glass capillaries (NanoTemper) and thermophoresis measured at 25 °C (with active temperature control) using a Monolith NT.115pico instrument (NanoTemper) running NT Control software (version 1.0.1). All experiments were performed in triplicate and data analyzed with the “KD fit model” in the NT Analysis software (version 2.0.2).

[3] = target: T3, recombinant human TSG-6 (Homo sapiens, UniProt P19827+P98066); assay: In vitro HC-transfer assay (IαI + rhTSG-6, Western blot anti-HC1); type: biochemical; conditions: 15 μM HA, 1.8 μM IαI, rhTSG-6, 2 h at 37 °C; for Substrate for HC transfer: Table 6; for Activity as substrate for HC transfer (text): Western blot anti-HC1
T3 construct: TSG-6–mediated HC-transfer assays (using full-length TSG6); purchased R&D Systems
Description: Covalent transfer of HC from IαI onto unmodified and chemically modified HA oligosaccharides was analyzed using the assay described previously ([26]). All reactions were performed using a buffer of 20 mM Hepes, pH 7.5, 150 mM NaCl, and 5 mM MgCl2. In a “standard” assay, HA oligosaccharides were at 15 μM, human IαI ([97]) 1.8 at μM (based on a molecular weight of 180 kDa), and recombinant human TSG-6 (R&D Systems) at 2.8 μM (based on a molecular weight of 35 kDa). Reaction mixtures were analyzed by SDS-PAGE using 4 to 12% bis-tris polyacrylamide gels (Invitrogen). For Western blot analysis, proteins were transferred onto nitrocellulose membrane (GE Healthcare) and incubated with antisera against HC1 (CP7, 1:10,000; ([98])). Bound primary antibody was detected using goat-anti-rabbit IgG conjugated to IR dye (LI-COR Biosciences) and blots imaged using an Odyssey Clx near-IR fluorescence imaging system (LICOR Biosciences).

T3 sequence (P98066 18-277): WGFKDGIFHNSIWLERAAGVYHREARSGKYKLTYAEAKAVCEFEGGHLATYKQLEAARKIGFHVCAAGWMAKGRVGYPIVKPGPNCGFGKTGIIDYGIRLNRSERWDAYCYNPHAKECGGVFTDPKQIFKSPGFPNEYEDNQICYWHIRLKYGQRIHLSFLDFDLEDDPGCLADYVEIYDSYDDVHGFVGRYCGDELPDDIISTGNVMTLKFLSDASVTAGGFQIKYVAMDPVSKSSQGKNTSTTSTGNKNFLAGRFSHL
T3 sequence (P19827 35-672 limits assumed): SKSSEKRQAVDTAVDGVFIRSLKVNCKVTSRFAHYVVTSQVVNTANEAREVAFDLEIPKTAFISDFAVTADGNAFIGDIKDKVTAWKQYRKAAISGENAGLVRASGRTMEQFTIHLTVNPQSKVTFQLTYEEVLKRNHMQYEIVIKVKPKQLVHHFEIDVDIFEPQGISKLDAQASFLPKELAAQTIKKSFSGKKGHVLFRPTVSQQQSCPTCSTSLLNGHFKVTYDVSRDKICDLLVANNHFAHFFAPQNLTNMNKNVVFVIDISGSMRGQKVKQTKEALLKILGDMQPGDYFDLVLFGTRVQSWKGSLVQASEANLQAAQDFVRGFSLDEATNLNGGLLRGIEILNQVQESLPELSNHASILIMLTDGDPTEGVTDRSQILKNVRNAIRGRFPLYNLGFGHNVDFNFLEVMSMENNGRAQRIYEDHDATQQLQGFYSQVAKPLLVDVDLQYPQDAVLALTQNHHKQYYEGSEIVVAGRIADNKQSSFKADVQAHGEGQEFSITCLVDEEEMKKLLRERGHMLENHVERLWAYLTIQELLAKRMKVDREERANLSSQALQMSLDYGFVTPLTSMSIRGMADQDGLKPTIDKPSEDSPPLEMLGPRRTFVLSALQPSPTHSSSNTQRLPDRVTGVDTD
T2 sequence (P16070 20-169): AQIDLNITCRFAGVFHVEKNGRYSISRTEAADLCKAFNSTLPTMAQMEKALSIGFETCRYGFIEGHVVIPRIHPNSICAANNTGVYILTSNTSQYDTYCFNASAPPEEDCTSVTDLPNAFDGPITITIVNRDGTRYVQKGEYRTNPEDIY
T1 sequence (P98066 36-129 limits assumed): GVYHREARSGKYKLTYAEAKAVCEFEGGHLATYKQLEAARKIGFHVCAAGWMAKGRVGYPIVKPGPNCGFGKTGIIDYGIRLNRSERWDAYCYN

SMILES	N ([1]; Table 4)	ΔG ([1]; Table 4) [kcal/mol]	ΔH ([1]; Table 4) [kcal/mol]	−TΔS ([1]; Table 4) [kcal•mol^a1]	Kd ([1]; Table 4) [nM]	% Binding affinity Link_TSG6 [1] [%]	% of binding to hisCD44_HABD^20–169 compared to the unmodified oligosaccharide of the same length ([2]; MST) [%]	% HAx^AN: percentage of binding affinity (KB) compared to the unmodified oligosaccharide of the same length ([2]; Table 5, MST) [%]	Kd ([2]; Table 5, MST, mean ± SD) [µM]	% Binding affinity hisCD44_HABD^20–169 [2] [%]	Substrate for HC transfer [3]	N ([1]; Table 1)	ΔG ([1]; Table 1) [kcal/mol]	ΔH ([1]; Table 1) [kcal/mol]	−TΔS ([1]; Table 1) [kcal/mol]	Kd ([1]; Table 1) [nM]	% HAn^AN: percentage of binding affinity (KB) compared to the unmodified oligosaccharide of the same length ([2]; Table 2, MST) [%]	Kd ([2]; Table 2, MST, mean (±SD)) [µM]	Activity as substrate for HC transfer (text) [3]
CC(=O)N[C@H]1[C@H](O[C@H]2[C@H](O)[C@@H](O)[C@H](O[C@H]3[C@H](O)[C@@H](CO)O[C@@H](O[C@H]4[C@H](O)[C@@H](O)[C@H](O[C@H]5[C@H](O)[C@@H](CO)O[C@@H](O[C@H]6[C@H](O)[C@@H](O)[C@H](O[C@@H]([C@H](O)[C@H](O)CO)[C@H](CNc7cc[nH]n7)NC(C)=O)O[C@@H]6C(=O)O)[C@@H]5NC(C)=O)O[C@@H]4C(=O)O)[C@@H]3NC(C)=O)O[C@@H]2C(=O)O)O[C@H](CO)[C@@H](O)[C@@H]1O[C@@H]1O[C@H](C(=O)O)[C@@H](O)[C@H](O)[C@H]1O [HA8-3APY]	1.19 ± 0.06	-8.97 ± 0.07	-5.70 ± 0.34	−3.28 ± 0.28	270 ± 30	115	23	23	220 ± 22	23	Yes								
CC(=O)N[C@H]1[C@H](O[C@H]2[C@H](O)[C@@H](O)[C@H](O[C@H]3[C@H](O)[C@@H](CO)O[C@@H](O[C@H]4[C@H](O)[C@@H](O)[C@H](O[C@H]5[C@H](O)[C@@H](CO)OC(O)[C@@H]5NC(C)=O)O[C@@H]4C(=O)O)[C@@H]3NC(C)=O)O[C@@H]2C(=O)O)O[C@H](CO)[C@@H](O)[C@@H]1O[C@@H]1O[C@H](C(=O)O)[C@@H](O)[C@H](O)[C@H]1O (stereo partly drawn) [HA6^AN, reference compound]				0.162 ± 0.21		100		100		100	No	1.04 ± 0.04	-8.13 ± 0.02	-8.29 ± 0.19	0.162 ± 0.21	1090 ± 40	100	103	did not
CC(=O)N[C@H]1[C@H](O[C@H]2[C@H](O)[C@@H](O)[C@H](O[C@H]3[C@H](O)[C@@H](CO)O[C@@H](O[C@H]4[C@H](O)[C@@H](O)[C@H](O[C@@H]([C@H](O)[C@H](O)CO)[C@H](CNc5cc[nH]n5)NC(C)=O)O[C@@H]4C(=O)O)[C@@H]3NC(C)=O)O[C@@H]2C(=O)O)O[C@H](CO)[C@@H](O)[C@@H]1O[C@@H]1O[C@H](C(=O)O)[C@@H](O)[C@H](O)[C@H]1O [HA6-3APY]	0.93 ± 0.02	-7.77 ± 0.15	-7.82 ± 0.73	0.04 ± 0.87	2240 ± 680	49	91	91	113 ± 6	91	Yes								good substrates; also recorded: could become covalently coupled to an HC

Reference: PMC11460632, “Chemical modification of hyaluronan oligosaccharides differentially modulates hyaluronan–hyaladherin interactions” (The Journal of Biological Chemistry, 2024)
